Measured values reported in publication PMC12203862, “BroadAMP-GPT: AI-Driven generation of broad-spectrum antimicrobial peptides for combating multidrug-resistant ESKAPE pathogens” (Gut Microbes, 2025).
≈ marks a conversion by molar mass, not a printed value. Residues, ends and D or L forms follow the SMILES beside them.

How the values were obtained:
S. suis P1/7 = experiment: microbe, parasite or virus in culture
Method: (§1) Bacterial strains and growth conditions: All Gram-negative and Gram-positive bacterial strains (Supplementary Table S8) were cultured in Luria-Bertani (LB) or trypticase soy broth (TSB) agar plates, respectively, and incubated overnight at 37 °C unless specifically indicated. A single colony of the tested bacterial strains was inoculated into medium broth with shaking at 220 rpm for further experiments.
(§2) Minimal inhibitory concentrations: Antimicrobial susceptibility testing was performed by broth microdilution method for AMPs against Gram-positive and Gram-negative pathogens above mentioned, following the methods of document CLSI M100-ED34.[43] The MICs were defined as the lowest concentrations that inhibit visible growth of the tested bacteria.

trypsin = trypsin 10 μg/mL, 37℃, 1 h, then MIC
Method: (§3) To understand stability of peptide under different pH conditions, AMP solutions were prepared at different pH values (pH = 2, 4, 6, 8, 10, and 12) and then incubated at room temperature for 1 h. For the temperature stability, AMP solutions were incubated at 20, 25, 40, 60, 80, and 100℃ for 1 h. For the protease stability, AMP solutions were incubated with pepsin, trypsin, and proteinase K at different concentration of 10 μg/mL at 37℃ for 1 h.[52],[53] After incubation, the MIC values peptides were determined using the MIC experimental protocol.

pepsin = pepsin 10 μg/mL, 37℃, 1 h, then MIC
Method: as §3

Caco-2 = experiment: Cytotoxicity, CCK-8; assay type: cell-based, human
Method: (§4) The cytotoxicity of selected AMPs to human laryngeal carcinoma epithelial cell (HEp-2) and colorectal adenocarcinoma cell (Caco-2) lines was evaluated using the CCK-8 method as previously described.[55] The cells were cultured in high-glucose dulbecco’s modified eagle medium (DMEM) supplemented with 10% fetal bovine serum (FBS) and 1% penicillin-streptomycin. Cells were inoculated in 96-well sterile microtiter plate at 5000 cells/100 μL. After cultured (37℃, 5%CO2) for 24 h, cells were treated with AMPs at concentrations ranging from 8 to 128 μg/mL for another 48 h. Afterward, the culture medium was replaced by fresh DMEM medium containing 10% CCK-8 and incubated for 1 h. The absorbance of the solution was measured at 450 nm by a microplate reader. Cell viability was calculated as: % cell viability = [(Abssample - Absblank)/(Absnegative - Absblank)]×100%. Each experiment was carried out with three replicates.

HEp-2 = experiment: Cytotoxicity, CCK-8; assay type: cell-based, human
Method: as §4

[1] = system: S. aureus clinical isolates (n = 40); assay type: cell-based
Method: as §1
as §2, with “bacteria. E. coli ATCC 25,922 and S. aureus ATCC 29,213 were served as quality controls.” for “bacteria.”

[2] = system: four Gram-positive and five Gram-negative bacteria, including ESKAPE pathogens; assay type: cell-based
Method: as §1
as §2, with “bacteria. E. coli ATCC 25,922 and S. aureus ATCC 29,213 were served as quality controls.” for “bacteria.”

chymotrypsin = details: 1 h, then MIC
S. enteritis S1 = experiment: organism not typed; assay type: cell-based
Method: as §1
as §2, with “bacteria. E. coli ATCC 25,922 and S. aureus ATCC 29,213 were served as quality controls.” for “bacteria.”

[3] = MIC in the presence of 50% rabbit plasma; S. aureus, E. faecalis, S. suis, S. enteritis, K. pneumoniae
E. faecalis JH2-2 = experiment: microbe, parasite or virus in culture; assay type: cell-based; details: JH2-2
Method: as §1
as §2, with “bacteria. E. coli ATCC 25,922 and S. aureus ATCC 29,213 were served as quality controls.” for “bacteria.”

S. aureus YZSA-24 = experiment: microbe, parasite or virus in culture; assay type: cell-based; details: YZSA-24
Method: as §1
as §2, with “bacteria. E. coli ATCC 25,922 and S. aureus ATCC 29,213 were served as quality controls.” for “bacteria.”

P. aeruginosa PA14 = experiment: microbe, parasite or virus in culture; assay type: cell-based; details: PA14
Method: as §1
as §2, with “bacteria. E. coli ATCC 25,922 and S. aureus ATCC 29,213 were served as quality controls.” for “bacteria.”

P. aeruginosa PAO1 = experiment: microbe, parasite or virus in culture; assay type: cell-based; details: PAO1
Method: as §1
as §2, with “bacteria. E. coli ATCC 25,922 and S. aureus ATCC 29,213 were served as quality controls.” for “bacteria.”

S. aureus M147-2 = experiment: microbe, parasite or virus in culture; assay type: cell-based; details: M147-2
Method: as §1
as §2, with “bacteria. E. coli ATCC 25,922 and S. aureus ATCC 29,213 were served as quality controls.” for “bacteria.”

S. aureus YZSA-21 = experiment: microbe, parasite or virus in culture; assay type: cell-based; details: YZSA-21
Method: as §1
as §2, with “bacteria. E. coli ATCC 25,922 and S. aureus ATCC 29,213 were served as quality controls.” for “bacteria.”

E. faecium HFY01 = experiment: microbe, parasite or virus in culture; assay type: cell-based; details: HFY01
Method: as §1
as §2, with “bacteria. E. coli ATCC 25,922 and S. aureus ATCC 29,213 were served as quality controls.” for “bacteria.”

E. coli ATCC 25922 = experiment: microbe, parasite or virus in culture; assay type: cell-based; details: ATCC 25922
Method: as §1
as §2, with “bacteria. E. coli ATCC 25,922 and S. aureus ATCC 29,213 were served as quality controls.” for “bacteria.”

S. aureus M92-1 = experiment: microbe, parasite or virus in culture; assay type: cell-based; details: M92-1
Method: as §1
as §2, with “bacteria. E. coli ATCC 25,922 and S. aureus ATCC 29,213 were served as quality controls.” for “bacteria.”

E. faecalis SF23-1 = experiment: microbe, parasite or virus in culture; assay type: cell-based; details: SF23-1
Method: as §1
as §2, with “bacteria. E. coli ATCC 25,922 and S. aureus ATCC 29,213 were served as quality controls.” for “bacteria.”

A. baumannii 7979 = experiment: microbe, parasite or virus in culture; assay type: cell-based; details: 7979
Method: as §1
as §2, with “bacteria. E. coli ATCC 25,922 and S. aureus ATCC 29,213 were served as quality controls.” for “bacteria.”

E. faecium QF31 = experiment: microbe, parasite or virus in culture; assay type: cell-based; details: QF31
Method: as §1
as §2, with “bacteria. E. coli ATCC 25,922 and S. aureus ATCC 29,213 were served as quality controls.” for “bacteria.”

S. aureus YZSA-15 = experiment: microbe, parasite or virus in culture; assay type: cell-based; details: YZSA-15
Method: as §1
as §2, with “bacteria. E. coli ATCC 25,922 and S. aureus ATCC 29,213 were served as quality controls.” for “bacteria.”

S. agalactiae DL03 = experiment: microbe, parasite or virus in culture; assay type: cell-based; details: DL03
Method: as §1
as §2, with “bacteria. E. coli ATCC 25,922 and S. aureus ATCC 29,213 were served as quality controls.” for “bacteria.”

E. faecium MC38 = experiment: microbe, parasite or virus in culture; assay type: cell-based; details: MC38
Method: as §1
as §2, with “bacteria. E. coli ATCC 25,922 and S. aureus ATCC 29,213 were served as quality controls.” for “bacteria.”

E. faecalis ES01 = experiment: microbe, parasite or virus in culture; assay type: cell-based; details: ES01
Method: as §1
as §2, with “bacteria. E. coli ATCC 25,922 and S. aureus ATCC 29,213 were served as quality controls.” for “bacteria.”

S. pyogenes DL02 = experiment: microbe, parasite or virus in culture; assay type: cell-based; details: DL02
Method: as §1
as §2, with “bacteria. E. coli ATCC 25,922 and S. aureus ATCC 29,213 were served as quality controls.” for “bacteria.”

E. faecalis J2 = experiment: microbe, parasite or virus in culture; assay type: cell-based; details: J2
Method: as §1
as §2, with “bacteria. E. coli ATCC 25,922 and S. aureus ATCC 29,213 were served as quality controls.” for “bacteria.”

K. pneumoniae 9-1 = experiment: microbe, parasite or virus in culture; assay type: cell-based; details: 9-1
Method: as §1
as §2, with “bacteria. E. coli ATCC 25,922 and S. aureus ATCC 29,213 were served as quality controls.” for “bacteria.”

S. suis SH0918 = experiment: microbe, parasite or virus in culture; assay type: cell-based
Method: as §1
as §2, with “bacteria. E. coli ATCC 25,922 and S. aureus ATCC 29,213 were served as quality controls.” for “bacteria.”

mouse red blood cells = experiment: Haemolysis assay; assay type: cell-based
Method: Red blood cells (RBCs) from Kunming mice were used to evaluate the hemolytic toxicity of the selected AMPs. Fresh red blood cells were collected from mice and washed until the supernatant was completely cleared. Added 19-fold volume of PBS to prepare 2% RBC suspension. […] Afterward, the mixture was centrifuged at 1500 rpm for 10 min. Then transferred 30 µL supernatant to 96-well plate containing 70 µL PBS. The absorbance of the sample was measured at 450 nm by a microplate reader. PBS and 2% Triton X-100 was used as negative and positive control, respectively. The experiment was performed in triplicate and the hemolysis activity was calculated by the formula hemolysis = [(Absorbancesample- AbsorbancePBS)/(AbsorbanceTriton x-100-AbsorbancePBS)]×100%.

proteinase K = proteinase K (Parengyodontium album, UniProt P06873); experiment: Protease stability by MIC change; assay type: in vitro ADME; details: proteinase K 10 μg/mL, 37℃, 1 h, then MIC
S. aureus ATCC 29213 = experiment: microbe, parasite or virus in culture; assay type: cell-based; details: ATCC 29213

Chain of proteinase K (P06873 106-384): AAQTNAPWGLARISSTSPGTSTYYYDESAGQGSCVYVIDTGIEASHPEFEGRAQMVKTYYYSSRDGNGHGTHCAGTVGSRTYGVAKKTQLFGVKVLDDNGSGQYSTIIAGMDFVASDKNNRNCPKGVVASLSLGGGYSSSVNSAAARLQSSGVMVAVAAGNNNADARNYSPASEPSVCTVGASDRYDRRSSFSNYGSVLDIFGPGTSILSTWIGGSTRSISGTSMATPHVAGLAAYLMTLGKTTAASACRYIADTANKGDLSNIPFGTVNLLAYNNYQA

Which MIC (S. suis P1/7) does the source give for `CC[C@H](C)[C@H](NC(=O)[C@H](C)NC(=O)[C@H](CCC(N)=O)NC(=O)[C@H](Cc1c[nH]c2ccccc12)NC(=O)[C@H](C)N)C(=O)N[C@@H](C)C(=O)N[C@@H](CCCNC(=N)N)C(=O)N[C@@H](CC(C)C)C(=O)N[C@H](C(=O)N[C@@H](CCCCN)C(=O)NCC(=O)N[C@@H](CCCNC(=N)N)C(=O)NCC(=O)N[C@@H](CCCNC(=N)N)C(=O)N[C@@H](CCCCN)C(=O)N[C@@H](CCCCN)C(=O)N[C@@H](Cc1ccc(O)cc1)C(=O)NCC(=O)N[C@@H](CCCNC(=N)N)C(=O)N[C@H](C(=O)N[C@H](C(=O)N[C@H](C(=O)N[C@H](C(=O)NCC(=O)O)[C@@H](C)CC)[C@@H](C)CC)[C@@H](C)CC)[C@@H](C)CC)[C@@H](C)CC` [AMP_S13] (H-AWQAIARLIKGRGRKKYGRIIIIG-OH) here?
Its MIC is 4 mg/L (≈ 1.46 µM).

And the “antimicrobial activity (MIC) after protease incubation” value (“antimicrobial activity (MIC)” for short) (trypsin)?
Its value is “maintained its activity”.

What about the “antimicrobial activity (MIC)” value (pepsin) of the same molecule?
Its value is “maintained its activity”.

What about the CC50 (Caco-2; 48 h) of the same molecule?
The CC50 was 1011 mg/L (≈ 369 µM).

What about the CC50/MIC (Caco-2; Caco-2, MIC values against S. aureus ATCC 29213) of the same molecule?
Its CC50/MIC is 126.38.

What about the CC50 (HEp-2; 48 h) of the same molecule?
The CC50 was 353.3 mg/L (≈ 129 µM).

And the CC50/MIC (HEp-2; HEp-2, MIC values against S. aureus ATCC 29213)?
Its CC50/MIC is 44.16.

And the “MICs, range over clinical isolates” value [1]?
Its value is 4 to 32 µg/mL.

What about the “MIC values, range” value [2] of the same molecule?
The value was 2 to 16 mg/L.

And the “MICs, range over panel” value [2]?
The value was 2 to 16 µg/mL.

And the “antimicrobial activity (MIC)” value (chymotrypsin)?
Its value is “maintained its activity”.

What about the MIC (S. enteritis S1) of the same molecule?
The MIC was 16 mg/L (≈ 5.84 µM).

What about the “antimicrobial activity in plasma” value [3] of the same molecule?
The value was “remained effective”.

And the MIC (E. faecalis JH2-2)?
Its MIC is 8 mg/L (≈ 2.92 µM).

And the MIC (S. aureus YZSA-24)?
The MIC was 16 mg/L (≈ 5.84 µM).

What about the MIC (P. aeruginosa PA14) of the same molecule?
The MIC was 8 mg/L (≈ 2.92 µM).

What about the MIC (P. aeruginosa PAO1) of the same molecule?
The MIC was 8 mg/L (≈ 2.92 µM).

And the MIC (S. aureus M147-2)?
The MIC was 8 mg/L (≈ 2.92 µM).

And the MIC (S. aureus YZSA-21)?
Its MIC is 8 mg/L (≈ 2.92 µM).

And the MIC (E. faecium HFY01)?
Its MIC is 4 mg/L (≈ 1.46 µM).

What about the MIC (E. coli ATCC 25922) of the same molecule?
The MIC was 8 mg/L (≈ 2.92 µM).

What about the MIC (S. aureus M92-1) of the same molecule?
The MIC was 8 mg/L (≈ 2.92 µM).

What about the MIC (E. faecalis SF23-1) of the same molecule?
Its MIC is 8 mg/L (≈ 2.92 µM).

And the MIC (A. baumannii 7979)?
The MIC was 2 mg/L (≈ 0.73 µM).

And the MIC (E. faecium QF31)?
The MIC was 4 mg/L (≈ 1.46 µM).

And the MIC (S. aureus YZSA-15)?
Its MIC is 8 mg/L (≈ 2.92 µM).

What about the MIC (S. agalactiae DL03) of the same molecule?
Its MIC is 4 mg/L (≈ 1.46 µM).

And the MIC (E. faecium MC38)?
Its MIC is 4 mg/L (≈ 1.46 µM).

And the MIC (E. faecalis ES01)?
Its MIC is 4 mg/L (≈ 1.46 µM).

What about the MIC (S. pyogenes DL02) of the same molecule?
Its MIC is 4 mg/L (≈ 1.46 µM).

And the MIC (E. faecalis J2)?
Its MIC is 8 mg/L (≈ 2.92 µM).

What about the MIC (K. pneumoniae 9-1) of the same molecule?
The MIC was 16 mg/L (≈ 5.84 µM).

And the MIC (S. suis SH0918)?
Its MIC is 4 mg/L (≈ 1.46 µM).

What about the HC50/MIC (mouse red blood cells; MIC values against S. aureus ATCC 29213) of the same molecule?
The HC50/MIC was 116.08.

And the HC50 (mouse red blood cells; mouse red blood cells, 37℃, 1 h)?
The HC50 was 928.6 µg/mL.

What about the “antimicrobial activity (MIC)” value (proteinase K) of the same molecule?
The value was “only a two-fold decrease in MIC”.

What about the MIC (S. aureus ATCC 29213) of the same molecule?
Its MIC is 8 mg/L (≈ 2.92 µM).
